# System: Urothelial cell
# Test: Urothelial cell scratch assay (wound assay)
# Assay type: cell-based
# Conditions: at 48 hours; FIGS. 7A-7B
# From the text: As used herein a “scratch assay,” (i.e., a wound assay) is a method to measure two-dimensional cell migration. Six growth factors were selected and tested: EGF, FGF-2, PDGF, TGF-β1, and VEGF.
row,Substance,wound gap coverage
1,"IGF-1: insulin-like growth factor 1, growth factor tested in urothelial scratch assay",increase
2,"EGF: epidermal growth factor, growth factor tested in urothelial scratch assay (NSDSECPLSHDGYCLHDGVCMYIEALDKYACNCVVGYIGERCQYRDLKWWELR; UniProt P01133 971-1023, looked up)",increase

# — patent publication US20240408274A1, “STENTS AND METHODS OF USE” (UNIVERSITY OF CONNECTICUT, priority 2021, published 2024)
